Series [1] in a line: Metabolic stability in golden hamster liver microsomes S9 fraction assessed as UGT-mediated metabolism by measuring parent compound remaining measured after 15 mins in presence of NADPH. It is filed as ADME, subcellular, Mesocricetus auratus. As to conditions: read-out: Stability. For orientation: Liver microsomes are vesicles of endoplasmic reticulum, rich in cytochrome P450 enzymes.

Series [2] is described as follows: Selectivity index, ratio of CC50 for Cytotoxicity against Swiss mouse peritoneal macrophages to EC50 for intracellular Leishmania infantum MHOM/MA(BE)/67 ITMAP263 amastigotes infected in Swiss mouse peritoneal macrophages. The following applies: read-out: Ratio CC50/EC50. The series is classed as toxicity, cell-based.
The target in the next series is Cytochrome P450 (Homo sapiens, UniProt P04798+P05177+P05181+P08684+P10632+P10635+P11509+P11712+P13584+P20813+P20815+P20853+P24462+P24903+P33260+P33261+P51589+P78329+P98187+Q02928+Q08477+Q16678+Q16696+Q5TCH4+Q6VVX0+Q7Z449+Q8TAV3+Q96SQ9+Q9HB55). The series can be described thus: Metabolic stability in human liver microsomes S9 fraction assessed as CYP450-mediated metabolism by measuring parent compound remaining measured after 15 mins in presence of NADPH. The series is classed as ADME, subcellular. As to conditions: read-out: Stability.

A short description of series [3]: Toxicity in golden hamster infected with Leishmania infantum MHOM/MA(BE)/67 amastigotes assessed as body weight loss at 50 mg/kg, po SID and administered for 10 days and measured twice weekly. It is filed as organism-based, Mesocricetus auratus. As to conditions: in vivo, 240 h, time 10 day.
The nature of series [4]: Clearance in golden hamster infected with Leishmania infantum MHOM/MA(BE)/67 amastigotes at 50 mg/kg, po SID and measured after 24 hrs by LC-MS/MS analysis. The following applies: in vivo. The series is classed as ADME, organism-based, Mesocricetus auratus.
The nature of series [5]: Tmax in golden hamster infected with Leishmania infantum MHOM/MA(BE)/67 amastigotes at 50 mg/kg, po SID and measured after 24 hrs by LC-MS/MS analysis. As to conditions: in vivo. It is filed as ADME, organism-based, Mesocricetus auratus.
The nature of series [6]: Metabolic stability in golden hamster liver microsomes S9 fraction assessed as CYP450-mediated metabolism by measuring parent compound remaining measured after 15 mins in presence of NADPH. The series is classed as ADME, subcellular, Mesocricetus auratus. As to conditions: read-out: Stability.
A short description of series [7]: Clearance in golden hamster infected with Leishmania infantum MHOM/MA(BE)/67 amastigotes at 50 mg/kg, po SID and measured after 10 days by LC-MS/MS analysis. The series is classed as ADME, organism-based, Mesocricetus auratus. As to conditions: in vivo, time 10 day.
The target of series [8] is T1, UDP-glucuronosyltransferases (UGTs) (Homo sapiens, UniProt O60656+O75310+O75795+P06133+P0DTE4+P0DTE5+P16662+P19224+P22309+P22310+P35503+P35504+P36537+P54855+Q6UWM9+Q9BY64+Q9HAW7+Q9HAW8+Q9HAW9). The experiment in a line: Metabolic stability in human liver microsomes S9 fraction assessed as UGT-mediated metabolism by measuring parent compound remaining measured after 30 mins in presence of NADPH. The series is classed as ADME, subcellular. As to conditions: read-out: Stability.

The test system of series [9] is Leishmania infantum. The experiment in a line: Antileishmanial activity against sodium stibogluconate and potassium antimonyl tartrate resistant intracellular Leishmania infantum MHOM/FR/96/LEM3323-CI4 promastigotes infected in Swiss mouse peritoneal macrophages assessed as inhibition of parasite growth measured after 96 hrs by microscopic analysis. The series is classed as functional, organism-based. As to conditions: MHOM/FR/96/LEM3323-CI4, Peritoneal macrophage.

Series [10] has as its target T1, UDP-glucuronosyltransferases (UGTs). The experiment in a line: Metabolic stability in human liver microsomes S9 fraction assessed as UGT-mediated metabolism by measuring parent compound remaining measured after 15 mins in presence of NADPH. It is filed as ADME, subcellular. As to conditions: read-out: Stability.
A short description of series [11]: Half life in golden hamster infected with Leishmania infantum MHOM/MA(BE)/67 amastigotes at 50 mg/kg, po SID and measured after 10 days by LC-MS/MS analysis. The following applies: in vivo, time 10 day. It is filed as ADME, organism-based, Mesocricetus auratus.
A short description of series [12]: Toxicity in golden hamster infected with Leishmania infantum MHOM/MA(BE)/67 amastigotes assessed as gross pathological changes at 50 mg/kg, po SID and measured after 10 days. The series is classed as organism-based, Mesocricetus auratus. The following applies: in vivo, 240 h, time 10 day.
Series [13] in a line: Half life in golden hamster infected with Leishmania infantum MHOM/MA(BE)/67 amastigotes at 50 mg/kg, po SID and measured after 24 hrs by LC-MS/MS analysis. It is filed as ADME, organism-based, Mesocricetus auratus. As to conditions: in vivo.
Series [14] can be described thus: AUC (0 to 24) in golden hamster infected with Leishmania infantum MHOM/MA(BE)/67 amastigotes at 50 mg/kg, po SID and measured after 24 hrs by LC-MS/MS analysis. The series is classed as ADME, organism-based, Mesocricetus auratus. As to conditions: in vivo. The arrangement: time 24 hrs, dose 50 mg/kg, route po.
Series [15] has as its system Leishmania infantum. The experiment in a line: Antileishmanial activity against intracellular Leishmania infantum MHOM/MA(BE)/67 ITMAP263 amastigotes infected in Swiss mouse peritoneal macrophage assessed as inhibition of parasite growth measured after 5 days by geimsa staining based microscopic analysis. It is filed as functional, organism-based. The following applies: MHOM/MA(BE)/67 ITMAP263, Peritoneal macrophage, 120 h.

A short description of series [16]: AUC (0 to 8) in golden hamster infected with Leishmania infantum MHOM/MA(BE)/67 amastigotes at 50 mg/kg, po SID and measured after 10 days by LC-MS/MS analysis. It is filed as ADME, organism-based, Mesocricetus auratus. The arrangement: dose 50 mg/kg, time 10 day, route po. The following applies: in vivo.

SMILES strings stand for the structures.

By CL/F is commonly meant the apparent clearance, not corrected for the fraction that reaches the circulation. In general, Tmax refers to the time at which the peak concentration occurs. A word on the EC50: it is the concentration giving half of the maximal effect. A word on the half-life: it is the time needed for the level to fall by half in the phase considered. The term AUC denotes the area under the concentration-time curve, a measure of exposure. Lower therefore signals low exposure. In the case of `Cc1ncnc2c1c(-c1cc(Cl)ccn1)cn2[C@@H]1O[C@H](CO)[C@@H](O)[C@H]1O`, the remaining at 0.25 h in series [1] was 98%; on Cytochrome P450 it was 92%; in series [6], 96%; in [10] it was 93%. In addition, in [2], the selectivity ratio was above 94. Further, the Activity entry in series [3] and in [12] was “Non-Toxic” throughout. Besides, the apparent clearance CL/F in series [4] worked out at 56.6 mL/min/kg; in [7] it was 34.7 mL/min/kg. Besides, the time of peak concentration (Tmax) in series [5] worked out at 0.5 h. In [8], the remaining at 0.5 h worked out at 96%. Further, the figures for the EC50 in the series on Leishmania infantum [9] and in the series with Leishmania infantum [15] were 2210 nM and 680 nM, respectively. Besides, the half-life in [11] is 1.7 h; in series [13] it was 2.7 h. This compound also yielded an AUC at 24 h in [14] of 2080 ng·h/mL. In addition, in series [16], the AUC at 240 h is 2840 ng·h/mL.

Source of the values: ChEMBL document CHEMBL5120865, “Exploration of 6-methyl-7-(Hetero)Aryl-7-Deazapurine ribonucleosides as antileishmanial agents” (Eur J Med Chem, 2022).
